Measurements: patent US20070202116A1, “Treatment of micro-organism infection” (priority 2001, published 2007)
Where two headings read alike, the source gives them in different places.

Key:
[1] = test system: EMRSA-15; format: in vivo, S. aureus; conditions: Group 3: Vancomycin 6 mg/kg alone iv
Description: Methods: 60 female CD-1 mice (22-24 g) were given 1×10^7 cfu of EMRSA-15 as a 100 μl iv bolus.
All mice were terminated at 48 hours for culture of kidney, liver and spleen.
Results: expressed as log cfu per gram of tissue, unless the majority of mice (>5) were cleared (ie organs were culture-negative). N/A=not applicable. (Table 7)

[2] = test system: EMRSA strains, vancomycin resistant subpopulations, Linzolid resistant strains; test: Checkerboard MIC / FIC / FIX of vancomycin and Aurograb (Tables 9, 10); format: cell-based, S. aureus; conditions: for MIC In combination: VAN with Aurograb; for MIC: Staphylococcus aureus
Description: In order to determine the Minimum Inhibitory Concentration (MIC), the Fractional Inhibitory Concentration (FIC) and the FIX (fractional inhibitory index), the following was method was used.
The cells were diluted in Isosensitest Broth (Oxoid, UK) to give a final inoculum of […] cells per mL. […] To this was added exogenous Aurograb in the range 0.3-25 μg/ml in a checkerboard formation. A negative control series was also prepared containing Aurograb formulation buffer alone. Cultures were incubated for 48 hours at 37° C.
The minimum inhibitory concentration (MIC) was defined as the lowest concentration of agent at which no bacterial growth occurred and was determined by spectrophotometric evaluation of the lack of turbidity (growth) in culture.
Fractional inhibitory concentrations (FIC) and FIX values were calculated. Synergistic activity between the two agents was defined as an FIX value ≦0.5. Indifferent activity was defined as a value of 0.5-4, and a value of ≧4 defined antagonism.
The MIC (Alone) column indicates the minimum inhibitory concentration of the agent when administered alone. The MIC (In combination) column indicates the minimum inhibitory concentration of each drug when used in combination.

[3] = test system: EMRSA-15; format: in vivo, S. aureus; conditions: for Survivors at 24 h (n = 10): 8×10^7 cfu; for Mortality: 10 mice
Description: Method: 60 female CD-I mice (22-24 g) were given S. aureus (a fresh clinical isolate of EMRSA-15) at a dose of 8×10^7 cfu in a 100 μl iv bolus.
All mice were terminated at 48 hours for culture of kidney, liver and spleen. Mice fatalities prior to the 48 hour cull were not subject to organ colony counts.

CN[C@H](CC(C)C)C(=O)N[C@H]1C(=O)N[C@@H](CC(N)=O)C(=O)N[C@H]2C(=O)N[C@H]3C(=O)N[C@H](C(=O)N[C@H](C(=O)O)c4cc(O)cc(O)c4-c4cc3ccc4O)[C@H](O)c3ccc(c(Cl)c3)Oc3cc2cc(c3O[C@@H]2O[C@H](CO)[C@@H](O)[C@H](O)[C@H]2O[C@H]2C[C@](C)(N)[C@H](O)[C@H](C)O2)Oc2ccc(cc2Cl)[C@H]1O [Vancomycin, vancomycin]
Liver, number of mice cleared ([1]; 10 mice): N/A (8 clear) | Spleen, number of mice cleared ([1]; 10 mice): 5 | Liver, number of mice cleared ([1]; 10 mice, listed as vancomycin): 8 | Kidney Log cfu/g of tissue ([1]; 48 hours): 6.53 ± 1.53 Log cfu/g of tissue | MIC In combination ([2]; EMRSA strain 1): 0.03 µg/mL | MIC In combination ([2]; EMRSA strain 1A): 1 µg/mL | MIC In combination ([2]; EMRSA strain 2): 0.03 µg/mL | MIC In combination ([2]; EMRSA strain 2A): 1 µg/mL | MIC In combination ([2]; EMRSA strain 3): 0.03 µg/mL | MIC In combination ([2]; EMRSA strain 4): 0.03 µg/mL | MIC In combination ([2]; EMRSA strain 5): 0.03 µg/mL | MIC In combination ([2]; EMRSA strain 6): 0.125 µg/mL | MIC In combination ([2]; EMRSA strain 7): 0.03 µg/mL | MIC In combination ([2]; EMRSA strain 8): 0.03 µg/mL | MIC In combination ([2]; EMRSA strain 8A): 0.03 µg/mL | MIC In combination ([2]; EMRSA strain 9): 0.0125 µg/mL | MIC In combination ([2]; EMRSA strain 10): 0.03 µg/mL | MIC In combination ([2]; EMRSA strain 11): 0.03 µg/mL | MIC In combination ([2]; EMRSA strain 11A): 1 µg/mL | MIC In combination ([2]; EMRSA strain 12): 0.03 µg/mL | MIC In combination ([2]; EMRSA strain 12A): 0.03 µg/mL | MIC In combination ([2]; EMRSA strain 13): 0.03 µg/mL | MIC In combination ([2]; EMRSA strain 14): 0.03 µg/mL | MIC In combination ([2]; EMRSA strain 15): 0.03 µg/mL | MIC In combination ([2]; EMRSA strain 15A): 0.03 µg/mL | MIC In combination ([2]; EMRSA strain 16): 0.03 µg/mL | MIC In combination ([2]; EMRSA strain 17): 1 µg/mL | MIC In combination ([2]; NARSA 1 (Hiramatsu)): 2 µg/mL | MIC In combination ([2]; NARSA 2 (Hiramatsu)): 0.5 µg/mL | MIC In combination ([2]; NARSA 12 (France)): 1 µg/mL | MIC In combination ([2]; NARSA 17 (New York)): 2 µg/mL | MIC In combination ([2]; NARSA 119 (Linezolid R)): 1 µg/mL | MIC In combination ([2]; NARSA 120 (Linezolid R)): 1 µg/mL | MIC In combination ([2]; NARSA 121 (Linezolid R)): 1 µg/mL | MIC ([2]; read-out: MIC Alone, EMRSA strain 1): 0.5 µg/mL | MIC ([2]; read-out: MIC Alone, EMRSA strain 1A): 8 µg/mL | MIC ([2]; read-out: MIC Alone, EMRSA strain 2): 0.5 µg/mL | MIC ([2]; read-out: MIC Alone, EMRSA strain 2A): 8 µg/mL | MIC ([2]; read-out: MIC Alone, EMRSA strain 3): 0.5 µg/mL | MIC ([2]; read-out: MIC Alone, EMRSA strain 4): 0.5 µg/mL | MIC ([2]; read-out: MIC Alone, EMRSA strain 5): 0.5 µg/mL | MIC ([2]; read-out: MIC Alone, EMRSA strain 6): 0.5 µg/mL | MIC ([2]; read-out: MIC Alone, EMRSA strain 7): 0.5 µg/mL | MIC ([2]; read-out: MIC Alone, EMRSA strain 8): 0.5 µg/mL | MIC ([2]; read-out: MIC Alone, EMRSA strain 8A): 0.5 µg/mL | MIC ([2]; read-out: MIC Alone, EMRSA strain 9): 0.5 µg/mL | MIC ([2]; read-out: MIC Alone, EMRSA strain 10): 0.5 µg/mL | MIC ([2]; read-out: MIC Alone, EMRSA strain 11): 0.5 µg/mL | MIC ([2]; read-out: MIC Alone, EMRSA strain 11A): 4 µg/mL | MIC ([2]; read-out: MIC Alone, EMRSA strain 12): 0.5 µg/mL | MIC ([2]; read-out: MIC Alone, EMRSA strain 12A): 0.5 µg/mL | MIC ([2]; read-out: MIC Alone, EMRSA strain 13): 0.5 µg/mL | MIC ([2]; read-out: MIC Alone, EMRSA strain 14): 0.5 µg/mL | MIC ([2]; read-out: MIC Alone, EMRSA strain 15): 0.5 µg/mL | MIC ([2]; read-out: MIC Alone, EMRSA strain 15A): 0.5 µg/mL | MIC ([2]; read-out: MIC Alone, EMRSA strain 16): 0.5 µg/mL | MIC ([2]; read-out: MIC Alone, EMRSA strain 17): 4 µg/mL | MIC ([2]; read-out: MIC Alone, NARSA 1 (Hiramatsu)): 8 µg/mL | MIC ([2]; read-out: MIC Alone, NARSA 2 (Hiramatsu)): 3 µg/mL | MIC ([2]; read-out: MIC Alone, NARSA 12 (France)): 8 µg/mL | MIC ([2]; read-out: MIC Alone, NARSA 17 (New York)): 8 µg/mL | MIC ([2]; read-out: MIC Alone, NARSA 119 (Linezolid R)): 4 µg/mL | MIC ([2]; read-out: MIC Alone, NARSA 120 (Linezolid R)): 4 µg/mL | MIC ([2]; read-out: MIC Alone, NARSA 121 (Linezolid R)): 4 µg/mL | Survivors at 24 h (n = 10) ([3]; Group 2: Vancomycin 4.0 mg/kg alone iv): 4 | Survivors at 24 h (n = 10) ([3]; Group 4: Vancomycin 2.0 mg/kg alone iv): 5 | Mortality ([3]; vancomycin alone 2.0 mg/kg): 5 deaths | Mortality ([3]; vancomycin alone 4.0 mg/kg): 6 deaths
